From PubChem BioAssay AID192 (DTP/NCI, 2004)
Values joined by “and” are separate entries in the source; they are usually repeats but may differ in a detail not shown here. Identical values can stand only once. Inconclusive results and toxic doses are left out.

Test system: BDF1 mice, B16 melanoma ip, median survival T/C
Experiment: NCI In Vivo Anticancer Drug Screen. Data for tumor model B16 Melanoma (intraperitoneal) in B6D2F1 (BDF1) mice
Conditions: endpoint: median survival time, higher = longer survival
Procedure, shortened: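 Tumor-bearing mice received test compound or vehicle. Survival or tumor size was then measured in both groups. The treated-group figure was divided by the control-group figure.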

[1] = dose: 1.25 mg/kg/injection, schedule: Q01DX009 (ip), vehicle: Klucel (hydroxypropylcellulose) (HPC)
[2] = dose: 2.5 mg/kg/injection, schedule: Q01DX009 (ip), vehicle: Klucel (hydroxypropylcellulose) (HPC)
[3] = dose: 5.0 mg/kg/injection, schedule: Q01DX009 (ip), vehicle: Klucel (hydroxypropylcellulose) (HPC)
[4] = dose: 25.0 mg/kg/injection, schedule: Q01DX009 (ip), vehicle: Klucel (hydroxypropylcellulose) (HPC)
[5] = dose: 50.0 mg/kg/injection, schedule: Q01DX009 (ip), vehicle: Klucel (hydroxypropylcellulose) (HPC)
[6] = dose: 100.0 mg/kg/injection, schedule: Q01DX009 (ip), vehicle: Klucel (hydroxypropylcellulose) (HPC)
[7] = dose: 200.0 mg/kg/injection, schedule: Q01DX009 (ip), vehicle: Klucel (hydroxypropylcellulose) (HPC)
[8] = dose: 400.0 mg/kg/injection, schedule: Q01DX009 (ip), vehicle: Klucel (hydroxypropylcellulose) (HPC)
[9] = dose: 100.0 mg/kg/injection, schedule: Q01DX009 (ip), vehicle: saline
[10] = dose: 200.0 mg/kg/injection, schedule: Q01DX009 (ip), vehicle: saline
[11] = dose: 400.0 mg/kg/injection, schedule: Q01DX009 (ip), vehicle: saline
[12] = dose: 12.5 mg/kg/injection, schedule: Q01DX009 (ip), vehicle: Klucel (hydroxypropylcellulose) (HPC)

COc1cc2c(c(OC)c1O)-c1ccc(OC)c(=O)cc1[C@@H](NC(=O)C(F)(F)F)CC2 was tested, and the T/C (dose: 0.62 mg/kg/injection, schedule: Q01DX009 (ip), vehicle: Klucel (hydroxypropylcellulose) (HPC)) was 121 % of control, the T/C [1] was 117 % of control and 124 % of control and the T/C [2] was 116 % of control. The T/C [3] was 118 % of control.
For O=NN(CCCl)C(=O)NC1[C@H](O)CCC[C@@H]1O (stereo not given in full), the T/C (dose: 0.63 mg/kg/injection, schedule: Q01DX009 (ip), vehicle: saline) was 159 % of control, the T/C (dose: 1.25 mg/kg/injection, schedule: Q01DX009 (ip), vehicle: saline) was 208 % of control and the T/C (dose: 2.5 mg/kg/injection, schedule: Q01DX009 (ip), vehicle: saline) was 295 % of control. The T/C (dose: 5.0 mg/kg/injection, schedule: Q01DX009 (ip), vehicle: saline) was 295 % of control.
For CC(COCc1ccccc1)NCc1ccccc1 (stereo not given), the T/C [4] was 96 % of control and the T/C [5] was 90 % of control.
COc1cccc(N=Cc2ccc(C=Nc3cccc(OC)c3)cc2)c1 was tested, and the T/C [6] was 107 % of control, the T/C [7] was 96 % of control and the T/C [8] was 96 % of control.
In the case of CSCCC(NC(=O)CN(C)C(=O)OCc1ccccc1)C(=O)O (stereo not given), the T/C (dose: 50.0 mg/kg/injection, schedule: Q01DX009 (ip), vehicle: saline with Tween-80) is reported as 100 % of control and the T/C (dose: 100.0 mg/kg/injection, schedule: Q01DX009 (ip), vehicle: saline with Tween-80) is reported as 100 % of control.
For Cc1c2cc[n+](C)c(C)c2cc2c1[nH]c1ccccc12, the T/C (dose: 10.0 mg/kg/injection, schedule: Q04DX003 (ip), vehicle: water) was 95 % of control, the T/C (dose: 20.0 mg/kg/injection, schedule: Q04DX003 (ip), vehicle: water) was 92 % of control and the T/C (dose: 40.0 mg/kg/injection, schedule: Q04DX003 (ip), vehicle: water) was 94 % of control.
For C=CC(=O)N1CN(C(=O)C=C)CN(C(=O)C=C)C1, the T/C (dose: 0.78 mg/kg/injection, schedule: Q01DX009 (ip), vehicle: saline with Tween-80) was 110 % of control, the T/C (dose: 1.56 mg/kg/injection, schedule: Q01DX009 (ip), vehicle: saline with Tween-80) was 114 % of control and the T/C (dose: 3.12 mg/kg/injection, schedule: Q01DX009 (ip), vehicle: saline with Tween-80) was 116 % of control.
c1ccc2cc3c(ccc4ccccc43)cc2c1 was tested, and the T/C (dose: 50.0 mg/kg/injection, schedule: Q01DX009 (ip), vehicle: distilled water + Tween-80) was 109 % of control, the T/C (dose: 100.0 mg/kg/injection, schedule: Q01DX009 (ip), vehicle: distilled water + Tween-80) was 103 % of control and the T/C (dose: 200.0 mg/kg/injection, schedule: Q01DX009 (ip), vehicle: distilled water + Tween-80) was 100 % of control.
In the case of [Cl][Ge]([c]1ccccc1)([c]1ccccc1)[c]1ccccc1, the T/C [6] is reported as 96 % of control, the T/C [7] is reported as 96 % of control and the T/C [8] is reported as 100 % of control.
For CCOC(=O)CCN1CC(C)OC(C)C1 (stereo not given), the T/C [9] was 118 % of control, the T/C [10] was 115 % of control and the T/C [11] was 118 % of control.
In the case of Cc1cc(C)nc(NS(=O)(=O)c2ccc(N=Nc3nc4[nH]c(N)nc(=S)c4[nH]3)cc2)n1, the T/C (dose: 0.19 mg/kg/injection, schedule: Q01DX009 (ip), vehicle: Klucel (hydroxypropylcellulose) (HPC)) is reported as 115 % of control, the T/C (dose: 0.39 mg/kg/injection, schedule: Q01DX009 (ip), vehicle: Klucel (hydroxypropylcellulose) (HPC)) is reported as 111 % of control and the T/C (dose: 0.78 mg/kg/injection, schedule: Q01DX009 (ip), vehicle: Klucel (hydroxypropylcellulose) (HPC)) is reported as 105 % of control. For the same molecule, the T/C (dose: 1.56 mg/kg/injection, schedule: Q01DX009 (ip), vehicle: Klucel (hydroxypropylcellulose) (HPC)) was 102 % of control.
With COC(=O)C(C(=O)OC)C(Br)(OC(C)=O)OC(C)=O the T/C (dose: 50.0 mg/kg/injection, schedule: Q04DX003 (ip), vehicle: saline with Tween-80) was 105 % of control, the T/C (dose: 100.0 mg/kg/injection, schedule: Q04DX003 (ip), vehicle: saline with Tween-80) was 95 % of control and the T/C (dose: 200.0 mg/kg/injection, schedule: Q04DX003 (ip), vehicle: saline with Tween-80) was 99 % of control. The T/C (dose: 400.0 mg/kg/injection, schedule: Q04DX003 (ip), vehicle: saline with Tween-80) was 103 % of control.
In the case of CN(Cc1cnc2nc(N)nc(N)c2n1)c1c(Cl)cc(C(=O)NC(CCC(=O)O)C(=O)O)cc1Cl (stereo not given), the T/C (dose: 3.12 mg/kg/injection, schedule: Q01DX009 (ip), vehicle: Klucel (hydroxypropylcellulose) (HPC)) is reported as 116 % of control, the T/C (dose: 6.25 mg/kg/injection, schedule: Q01DX009 (ip), vehicle: Klucel (hydroxypropylcellulose) (HPC)) is reported as 111 % of control and the T/C [12] is reported as 116 % of control. The T/C (dose: 17.5 mg/kg/injection, schedule: Q01DX011 (ip), vehicle: saline) was 99 % of control, the T/C [4] was 109 % of control and the T/C (dose: 35.0 mg/kg/injection, schedule: Q01DX011 (ip), vehicle: saline) was 107 % of control. The T/C [5] was 111 % of control.
CCN(CC)CCCNc1nccc2c(C)c3[nH]c4ccncc4c3cc12 was tested, and the T/C (dose: 0.37 mg/kg/injection, schedule: Q01DX009 (ip), vehicle: other) was 115 % of control, the T/C (dose: 0.38 mg/kg/injection, schedule: Q01DX009 (ip), vehicle: other) was 160 % of control and the T/C (dose: 0.75 mg/kg/injection, schedule: Q01DX009 (ip), vehicle: other) was 171 % of control and 177 % of control. The T/C (dose: 1.5 mg/kg/injection, schedule: Q01DX009 (ip), vehicle: other) was 163 % of control and 218 % of control, the T/C (dose: 3.0 mg/kg/injection, schedule: Q01DX009 (ip), vehicle: other) was 163 % of control and 233 % of control and the T/C (dose: 6.0 mg/kg/injection, schedule: Q01DX009 (ip), vehicle: other) was 188 % of control and 213 % of control.
With CCOCCN1CCN(CCCN2c3ccccc3Sc3ccc(C(F)(F)F)cc32)CC1 the T/C (dose: 0.09 mg/kg/injection, schedule: Q01DX009 (ip), vehicle: water) was 105 % of control, the T/C (dose: 0.19 mg/kg/injection, schedule: Q01DX009 (ip), vehicle: water) was 113 % of control and the T/C (dose: 0.39 mg/kg/injection, schedule: Q01DX009 (ip), vehicle: water) was 100 % of control.
In the case of COc1ccc(NC(=O)Nc2c(C)cc(C)cc2C)cc1, the T/C (dose: 100.0 mg/kg/injection, schedule: Q01DX009 (ip), vehicle: gum acacia) is reported as 96 % of control, the T/C (dose: 200.0 mg/kg/injection, schedule: Q01DX009 (ip), vehicle: gum acacia) is reported as 90 % of control and the T/C (dose: 400.0 mg/kg/injection, schedule: Q01DX009 (ip), vehicle: gum acacia) is reported as 101 % of control.
For CCO, the T/C (dose: 250.0 mg/kg/injection, schedule: Q01DX009 (ip), vehicle: saline) was 109 % of control, the T/C (dose: 500.0 mg/kg/injection, schedule: Q01DX009 (ip), vehicle: saline) was 86 % of control and the T/C (dose: 1000.0 mg/kg/injection, schedule: Q01DX009 (ip), vehicle: saline) was 104 % of control. For the same molecule, the T/C (dose: 2000.0 mg/kg/injection, schedule: Q01DX009 (ip), vehicle: saline) was 93 % of control.
In the case of CCC1OCC(C(Cl)CCl)O1 (stereo not given), the T/C [12] is reported as 90 % of control and 97 % of control, the T/C [4] is reported as 88 % of control and 109 % of control and the T/C [5] is reported as 86 % of control and 97 % of control. The T/C [6] was 94 % of control and 105 % of control, the T/C [7] was 89 % of control and 117 % of control and the T/C [8] was 105 % of control.
In the case of CC(C)OCc1c(N)nc(=S)[nH]c1C(=O)O, the T/C (dose: 25.0 mg/kg/injection, schedule: Q01DX009 (ip), vehicle: saline) is reported as 92 % of control and the T/C (dose: 50.0 mg/kg/injection, schedule: Q01DX009 (ip), vehicle: saline) is reported as 86 % of control.
For N#CCc1ccccc1S(=O)(=O)O, the T/C [9] was 103 % of control, the T/C [10] was 104 % of control and the T/C [11] was 104 % of control.
CCN(CC)CCCC(C)Nc1cc(C)nc(Nc2nc3cc(Cl)c(Cl)cc3[nH]2)n1 (stereo not given) was tested, and the T/C [1] was 94 % of control, the T/C [2] was 95 % of control and the T/C [3] was 96 % of control. For the same molecule, the T/C (dose: 10.0 mg/kg/injection, schedule: Q01DX009 (ip), vehicle: Klucel (hydroxypropylcellulose) (HPC)) was 91 % of control.
With Clc1nc2ccccc2nc1CI the T/C (dose: 0.04 mg/kg/injection, schedule: Q01DX009 (ip), vehicle: saline with Tween-80) was 97 % of control, the T/C (dose: 0.08 mg/kg/injection, schedule: Q01DX009 (ip), vehicle: saline with Tween-80) was 97 % of control and the T/C (dose: 0.15 mg/kg/injection, schedule: Q01DX009 (ip), vehicle: saline with Tween-80) was 97 % of control. For the same molecule, the T/C (dose: 0.3 mg/kg/injection, schedule: Q01DX009 (ip), vehicle: saline with Tween-80) was 92 % of control, the T/C (dose: 0.31 mg/kg/injection, schedule: Q01DX009 (ip), vehicle: saline with Tween-80) was 94 % of control and the T/C (dose: 0.62 mg/kg/injection, schedule: Q01DX009 (ip), vehicle: saline with Tween-80) was 91 % of control. The T/C (dose: 1.25 mg/kg/injection, schedule: Q01DX009 (ip), vehicle: saline with Tween-80) was 100 % of control, the T/C (dose: 2.5 mg/kg/injection, schedule: Q01DX009 (ip), vehicle: saline with Tween-80) was 97 % of control and the T/C (dose: 5.0 mg/kg/injection, schedule: Q01DX009 (ip), vehicle: saline with Tween-80) was 88 % of control.
